For the assay, the target named is wild-type human cardiac sodium channel, hNav1.5 (Homo sapiens, UniProt Q14524). As to the kind of experiment: Late INa screening assay (late sodium current, PatchXpress whole cell patch clamp). The assay is classed as cell-based. The conditions noted are these: compound at 10 μM; read-out: Late INa % blk. Background: Patch clamp records ionic current or voltage across a cell membrane.

Molecules are shown by their SMILES.

Sequence of wild-type human cardiac sodium channel, hNav1.5 (Q14524 whole entry): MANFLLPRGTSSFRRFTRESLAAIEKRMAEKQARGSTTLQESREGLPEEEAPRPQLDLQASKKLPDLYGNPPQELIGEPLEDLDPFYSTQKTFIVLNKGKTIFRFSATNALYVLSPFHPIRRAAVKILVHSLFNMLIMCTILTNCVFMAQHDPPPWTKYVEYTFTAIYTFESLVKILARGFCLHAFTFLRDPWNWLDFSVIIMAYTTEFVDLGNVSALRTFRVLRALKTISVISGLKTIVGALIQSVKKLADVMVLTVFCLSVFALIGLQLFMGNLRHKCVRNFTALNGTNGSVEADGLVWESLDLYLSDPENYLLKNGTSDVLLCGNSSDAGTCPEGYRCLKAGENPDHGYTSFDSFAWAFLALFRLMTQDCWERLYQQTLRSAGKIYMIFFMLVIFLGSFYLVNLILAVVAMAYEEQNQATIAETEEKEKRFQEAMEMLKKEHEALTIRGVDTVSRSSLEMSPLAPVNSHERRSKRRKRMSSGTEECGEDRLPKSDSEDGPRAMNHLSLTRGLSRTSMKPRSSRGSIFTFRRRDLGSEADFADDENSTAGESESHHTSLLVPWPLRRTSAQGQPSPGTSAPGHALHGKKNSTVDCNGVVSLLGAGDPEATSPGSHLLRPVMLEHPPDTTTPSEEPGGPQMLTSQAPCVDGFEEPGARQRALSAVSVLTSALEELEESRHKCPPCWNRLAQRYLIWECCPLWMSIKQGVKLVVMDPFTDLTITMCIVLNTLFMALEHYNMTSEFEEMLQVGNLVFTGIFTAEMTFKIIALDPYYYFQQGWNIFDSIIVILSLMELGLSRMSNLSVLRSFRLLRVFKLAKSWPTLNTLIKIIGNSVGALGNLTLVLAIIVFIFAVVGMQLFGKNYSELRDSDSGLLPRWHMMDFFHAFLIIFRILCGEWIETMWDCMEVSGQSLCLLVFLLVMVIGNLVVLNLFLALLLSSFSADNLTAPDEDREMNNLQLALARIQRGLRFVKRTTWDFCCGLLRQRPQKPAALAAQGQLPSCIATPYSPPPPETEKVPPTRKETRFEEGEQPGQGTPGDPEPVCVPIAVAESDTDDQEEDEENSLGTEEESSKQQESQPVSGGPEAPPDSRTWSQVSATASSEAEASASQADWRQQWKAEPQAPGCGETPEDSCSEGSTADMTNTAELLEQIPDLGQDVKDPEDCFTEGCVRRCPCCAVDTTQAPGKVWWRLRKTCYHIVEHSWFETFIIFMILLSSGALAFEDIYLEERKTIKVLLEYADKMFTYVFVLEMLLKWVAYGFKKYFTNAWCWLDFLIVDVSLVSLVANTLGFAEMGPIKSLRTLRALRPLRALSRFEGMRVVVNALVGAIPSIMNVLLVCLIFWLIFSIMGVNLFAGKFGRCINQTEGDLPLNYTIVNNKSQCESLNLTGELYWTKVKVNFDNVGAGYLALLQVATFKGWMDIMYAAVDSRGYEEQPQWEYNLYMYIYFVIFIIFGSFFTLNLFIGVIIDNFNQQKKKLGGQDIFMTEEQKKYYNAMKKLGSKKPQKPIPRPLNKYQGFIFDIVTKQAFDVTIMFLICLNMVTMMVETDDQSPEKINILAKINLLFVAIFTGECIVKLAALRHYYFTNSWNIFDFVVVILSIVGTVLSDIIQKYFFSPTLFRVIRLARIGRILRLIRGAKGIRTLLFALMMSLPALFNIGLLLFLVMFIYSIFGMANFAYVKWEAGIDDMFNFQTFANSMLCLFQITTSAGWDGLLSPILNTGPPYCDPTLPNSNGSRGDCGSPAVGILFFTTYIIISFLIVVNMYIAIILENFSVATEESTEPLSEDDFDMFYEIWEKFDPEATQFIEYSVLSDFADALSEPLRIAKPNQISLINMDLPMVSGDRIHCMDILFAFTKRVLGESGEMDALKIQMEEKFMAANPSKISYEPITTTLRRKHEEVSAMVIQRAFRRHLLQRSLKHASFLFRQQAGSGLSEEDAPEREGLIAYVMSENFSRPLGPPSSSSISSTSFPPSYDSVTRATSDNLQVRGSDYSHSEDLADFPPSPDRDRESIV

As for `CCOC(=O)C1=C(C)NC(C)=C(C(=O)OCC)C1c1ccc([N+](=O)[O-])cc1OC` [PT-433, diethyl 4-(2-methoxy-4-nitrophenyl)-2,6-dimethyl-1,4-dihydropyridine-3,5-dicarboxylate], the inhibition at 10 µM amounted to 30.3%.
Regarding `CCOC(=O)C1=C(C)NC(C)=C(C(=O)OCC)C1c1ccccc1-c1cccc(C#N)c1` [PT-435, diethyl 4-(3′-cyanobiphenyl-2-yl)-2,6-dimethyl-1,4-dihydropyridine-3,5-dicarboxylate], the inhibition at 10 µM is 19.4%.
With `CCOC(=O)C1=C(C)NC(C)=C(C(=O)OCC)C1c1ccc(N(C)C)cc1OC` [PT-436, diethyl 4-(4-(dimethylamino)-2-methoxyphenyl)-2,6-dimethyl-1,4-dihydropyridine-3,5-dicarboxylate], the inhibition at 10 µM is 18.7%.
Turning to `CCOC(=O)C1=C(C)NC(C)=C(C(=O)OCC)C1c1ccc(N(C)C)cc1[N+](=O)[O-]` [PT-437, diethyl 4-(4-(dimethylamino)-2-nitrophenyl)-2,6-dimethyl-1,4-dihydropyridine-3,5-dicarboxylate], the inhibition at 10 µM came out at 43.1%.
Take `CCOC(=O)C1=C(C)NC(C)=C(C(=O)OCC)C1c1ccccc1-c1ccccc1` [PT-438, diethyl 4-(biphenyl-2-yl)-2,6-dimethyl-1,4-dihydropyridine-3,5-dicarboxylate]: the inhibition at 10 µM amounted to 20.9%.
To `CCOC(=O)C1=C(C)NC(C)=C(C(=O)OCC)C1c1cccc(-c2ccccc2)c1` [PT-439, diethyl 4-(biphenyl-3-yl)-2,6-dimethyl-1,4-dihydropyridine-3,5-dicarboxylate] belongs 56.1%; to `CCOC(=O)C1=C(C)Nc2[nH]nc(C)c2C1c1cccs1` (centres unmarked) [PT-443, ethyl 3,6-dimethyl-4-(thiophen-2-yl)-4,7-dihydro-1H-pyrazolo[3,4-b]pyridine-5-carboxylate], 20%.
`CCOC(=O)C1=C(C)N(Cc2nnn[nH]2)c2nnnn2C1c1cccc2ccccc12` (centres unmarked) [PT-444, ethyl 4-((1H-tetrazol-5-yl)methyl)-5-methyl-7-(naphthalen-1-yl)-4,7-dihydrotetrazolo[1,5-a]pyrimidine-6-carboxylate]: the inhibition at 10 µM was found to be 9.1%.
In the case of `CCOC(=O)C1=C(C)Nc2[nH]ncc2C1c1c(OC)cccc1OC` (centres unmarked) [PT-446, ethyl 4-(2,6-dimethoxyphenyl)-6-methyl-4,7-dihydro-1H-pyrazolo[3,4-b]pyridine-5-carboxylate], the inhibition at 10 µM amounted to 7%.
To `CCOC(=O)C1=C(C)Nc2[nH]ncc2C1c1c(Br)sc2ccccc12` (centres unmarked) [PT-447, ethyl 4-(2-bromobenzo[b]thiophen-3-yl)-6-methyl-4,7-dihydro-1H-pyrazolo[3,4-b]pyridine-5-carboxylate] belongs 77.4%.
For the compound `CCOC(=O)CN1C(C)=C(C(=O)OCC)C(c2cccc3ccccc23)n2nnnc21` (centres unmarked) [PT-449, ethyl 4-(2-ethoxy-2-oxoethyl)-5-methyl-7-(naphthalen-1-yl)-4,7-dihydrotetrazolo[1,5-a]pyrimidine-6-carboxylate], the inhibition at 10 µM came to 47.6%.
With `CCOC(=O)c1c(C)nc2[nH]ncc2c1-c1ccccc1-c1cccc(C(C)=O)c1` [PT-450, ethyl 4-(3′-acetylbiphenyl-2-yl)-6-methyl-1H-pyrazolo[3,4-b]pyridine-5-carboxylate] the figure was 7.3%; with `CCOC(=O)C1=C(C)Nc2[nH]ncc2C1c1ccccc1-c1cccc(C(C)=O)c1` (centres unmarked) [PT-451, ethyl 4-(3′-acetylbiphenyl-2-yl)-6-methyl-4,7-dihydro-1H-pyrazolo[3,4-b]pyridine-5-carboxylate], 18.4%.
For the compound `CCOC(=O)c1ccc(N2CCN(C(=O)C3=C(C)NC4=C(C(=O)CCC4)C3c3cccc4ccccc34)CC2)cc1` (centres unmarked) [PT-452, ethyl 4-(4-(2-methyl-4-(naphthalen-1-yl)-5-oxo-1,4,5,6,7,8-hexahydroquinoline-3-carbonyl)piperazin-1-yl)benzoate], the inhibition at 10 µM is 5.9%.
With `CCOC(=O)C1=C(C)Nc2[nH]ncc2C1c1ccc(N(C)C)c2ccccc12` (centres unmarked) [PT-454, ethyl 4-(4-(dimethylamino)naphthalen-1-yl)-6-methyl-4,7-dihydro-1H-pyrazolo[3,4-b]pyridine-5-carboxylate] the figure was 30.2%; with `CCOC(=O)C1=C(C)NC2=C(C(=O)CCC2)C1c1ccccc1-c1ccc(C(N)=O)cc1` (centres unmarked) [PT-455, ethyl 4-(4′-carbamoylbiphenyl-2-yl)-2-methyl-5-oxo-1,4,5,6,7,8-hexahydroquinoline-3-carboxylate], 9%.
For the compound `CCOC(=O)C1=C(C)N(CC#N)c2nnnn2C1c1cccc2ccccc12` (centres unmarked) [PT-456, ethyl 4-(cyanomethyl)-5-methyl-7-(naphthalen-1-yl)-4,7-dihydrotetrazolo[1,5-a]pyrimidine-6-carboxylate], the inhibition at 10 µM was determined as 2.7%.
With `CCOC(=O)C1=C(C)Nc2nnnn2C1c1ccccc1Oc1ccc(S(N)(=O)=O)cc1` (centres unmarked) [PT-458, ethyl 5-methyl-7-(2-(4-sulfamoylphenoxy)phenyl)-4,7-dihydrotetrazolo[1,5-a]pyrimidine-6-carboxylate] the figure was 19%; with `CCOC(=O)C1=C(C)Nc2nnnn2C1c1ccccc1-c1cccnc1` (centres unmarked) [PT-459, ethyl 5-methyl-7-(2-(pyridin-3-yl)phenyl)-4,7-dihydrotetrazolo[1,5-a]pyrimidine-6-carboxylate], 10.3%.
With `CCOC(=O)C1=C(C)Nc2nnnn2C1c1ccccc1-c1ccncc1` (centres unmarked) [PT-460, ethyl 5-methyl-7-(2-(pyridin-4-yl)phenyl)-4,7-dihydrotetrazolo[1,5-a]pyrimidine-6-carboxylate] the figure was 22.1%; with `CCOC(=O)C1=C(C)Nc2nnnn2C1c1ccccc1-c1cncnc1` (centres unmarked) [PT-461, ethyl 5-methyl-7-(2-(pyrimidin-5-yl)phenyl)-4,7-dihydrotetrazolo[1,5-a]pyrimidine-6-carboxylate], 6.2%.
For the compound `CCOC(=O)C1=C(C)Nc2nnnn2C1c1ccccc1-c1cccs1` (centres unmarked) [PT-462, ethyl 5-methyl-7-(2-(thiophen-2-yl)phenyl)-4,7-dihydrotetrazolo[1,5-a]pyrimidine-6-carboxylate], the inhibition at 10 µM came out at 63%.
To `CCOC(=O)C1=C(C)Nc2ccnn2C1c1cccc(Oc2ccccc2)c1` (centres unmarked) [PT-463, ethyl 5-methyl-7-(3-phenoxyphenyl)-4,7-dihydropyrazolo[1,5-a]pyrimidine-6-carboxylate] belongs 42.3%.
Turning to `CCOC(=O)C1=C(C(C)=O)C(c2cccc3ccccc23)n2nnnc2N1` (centres unmarked) [PT-465, ethyl 6-acetyl-7-(naphthalen-1-yl)-4,7-dihydrotetrazolo[1,5-a]pyrimidine-5-carboxylate], the inhibition at 10 µM turned out to be 10.5%.
To `CCOC(=O)C1=C(C)Nc2[nH]ncc2C1c1cccc(Oc2ccccc2)c1` (centres unmarked) [PT-470, ethyl 6-methyl-4-(3-phenoxyphenyl)-4,7-dihydro-1H-pyrazolo[3,4-b]pyridine-5-carboxylate] belongs 26%.
For `CCOC(=O)C1=C(C)Nc2[nH]ncc2C1c1ccccc1-c1ccc(NS(C)(=O)=O)cc1` (centres unmarked) [PT-471, ethyl 6-methyl-4-(4′-(methylsulfonamido)biphenyl-2-yl)-4,7-dihydro-1H-pyrazolo[3,4-b]pyridine-5-carboxylate], the inhibition at 10 µM stood at 30%.
